Experimental data as given in the supplement of paper PMC10307832.

Key:
Experiment in all cases: relative viability (nuclei count vs DMSO), 5 days (fraction); higher = more cells survive
[1] = compound: CC(C)CCN1c2nc(Nc3cc(F)c(O)c(F)c3)ncc2N(C)C(=O)C1C [BI-D1870] + CC(=O)c1c(C)c2cnc(Nc3ccc(N4CCNCC4)cn3)nc2n(C2CCCC2)c1=O [Palbociclib] (partner 0.5 µM)
How it was run: (§1)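 Lung cancer cell lines in 1536-well plates were dosed by pin tool the day after seeding, either with one drug alone or with a fixed anchor-drug dose plus five library-drug doses (not always all listed) in √10 steps. After 5 days, cells were fixed and their nuclei stained in one step (final 0.05% Triton X-100, 1% formaldehyde, 1 ug/ml Hoechst), then counted on 4× images. Relative viability is the nuclei count in treated wells divided by that in vehicle wells. Values are medians of duplicate plates.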

[2] = compound: O=c1ncccn1[C@@H]1O[C@H](CO)[C@@H](O)[C@H]1O [Zebularine] + Nc1nc2[nH]cc(CCc3ccc(C(=O)N[C@@H](CCC(=O)O)C(=O)O)cc3)c2c(=O)[nH]1 [Pemetrexed] (partner 0.2 µM)
How it was run: as §1

[3] = compound: CC(C)CCN1c2nc(Nc3cc(F)c(O)c(F)c3)ncc2N(C)C(=O)C1C [BI-D1870] + Cc1nc(NC(=O)N2CCC[C@H]2C(N)=O)sc1-c1ccnc(C(C)(C)C(F)(F)F)c1 [Alpelisib] (partner 2 µM)
How it was run: as §1

[4] = compound: O=c1ncccn1[C@@H]1O[C@H](CO)[C@@H](O)[C@H]1O [Zebularine] + CS(=O)(=O)N1CCN(Cc2cc3nc(-c4cccc5[nH]ncc45)nc(N4CCOCC4)c3s2)CC1 [Pictilisib] (partner 1 µM)
How it was run: as §1

| Cell Line | relative viability ([1]; first compound 0.04 µM) | relative viability ([1]; first compound 0.1265 µM) | relative viability ([1]; first compound 1.265 µM) | relative viability ([1]; first compound 4 µM) | relative viability ([2]; first compound 1 µM) | relative viability ([2]; first compound 3.162 µM) | relative viability ([2]; first compound 10 µM) | relative viability ([2]; first compound 31.62 µM) | relative viability ([2]; first compound 100 µM) | relative viability ([3]; first compound 0.04 µM) | relative viability ([3]; first compound 0.1265 µM) | relative viability ([3]; first compound 0.4 µM) | relative viability ([3]; first compound 1.265 µM) | relative viability ([3]; first compound 4 µM) | relative viability ([4]; first compound 1 µM) | relative viability ([4]; first compound 3.162 µM) | relative viability ([4]; first compound 10 µM) | relative viability ([4]; first compound 31.62 µM) | relative viability ([4]; first compound 100 µM) | relative viability ([1]; first compound 0.4 µM) |
| --- | --- | --- | --- | --- | --- | --- | --- | --- | --- | --- | --- | --- | --- | --- | --- | --- | --- | --- | --- | --- |
| NCI-H1648 | 0.285 | 0.273 | 0.308 | 0.259 | 0.652 | 0.613 | 0.518 | 0.804 | 0.683 | – | – | – | – | – | – | – | – | – | – | – |
| SK-MES-1 | 0.342 | 0.318 | 0.285 | 0.266 | 1.08 | 0.918 | 0.613 | 0.709 | 0.322 | 0.956 | 0.859 | 0.78 | 0.973 | 0.644 | 0.375 | 0.399 | 0.294 | 0.346 | 0.203 | 0.314 |
| HCC-366 | 0.422 | 0.404 | 0.445 | 0.376 | 0.168 | 0.179 | 0.136 | 0.192 | 0.0894 | 0.47 | 0.351 | 0.344 | 0.514 | 0.359 | 0.16 | 0.133 | 0.119 | 0.177 | 0.124 | 0.329 |
| 201T | 0.358 | 0.339 | 0.365 | 0.356 | 0.359 | 0.343 | 0.35 | 0.311 | 0.271 | 1 | 0.935 | 0.976 | 1 | 0.951 | 0.729 | 0.743 | 0.709 | 0.671 | 0.703 | 0.362 |
| HCC-827 | 0.444 | 0.431 | 0.446 | 0.432 | 0.328 | 0.254 | 0.229 | 0.243 | 0.235 | 0.991 | 0.959 | 0.916 | 0.965 | 0.907 | 1.19 | 0.977 | 0.835 | 0.738 | 0.544 | 0.421 |
| NCI-H647 | 0.488 | 0.342 | 0.371 | 0.215 | 0.18 | 0.183 | 0.149 | 0.115 | 0.115 | 1.1 | 0.985 | 1.16 | 1.07 | 0.896 | 0.596 | 0.381 | 0.222 | 0.182 | 0.114 | 0.463 |
| NCI-H2023 | 0.424 | 0.279 | 0.3 | 0.207 | 0.232 | 0.2 | 0.138 | 0.18 | 0.149 | 0.696 | 0.552 | 0.592 | 0.634 | 0.552 | 0.262 | 0.272 | 0.215 | 0.272 | 0.201 | 0.284 |
| NCI-H520 | 0.253 | 0.218 | 0.224 | 0.13 | 0.687 | 0.588 | 0.374 | 0.239 | 0.215 | 0.903 | 0.76 | 0.85 | 0.953 | 0.764 | 0.362 | 0.308 | 0.204 | 0.268 | 0.152 | 0.217 |
| RERF-LC-KJ | 1.14 | 0.994 | 1.02 | 0.766 | 0.447 | 0.505 | 0.415 | 0.507 | 0.443 | 0.835 | 0.76 | 0.761 | 0.688 | 0.689 | 0.662 | 0.485 | 0.348 | 0.565 | 0.474 | 1.03 |
| A-427 | 0.59 | 0.488 | 0.555 | 0.495 | 1.08 | 0.991 | 0.95 | 0.538 | 0.294 | 1.13 | 1.02 | 0.992 | 1.12 | 1.16 | 0.835 | 0.783 | 0.686 | 0.433 | 0.191 | 0.532 |
| NCI-H441 | 0.266 | 0.21 | 0.225 | 0.229 | 0.274 | 0.248 | 0.302 | 0.185 | 0.166 | 0.915 | 0.675 | 0.955 | 0.572 | 0.434 | 0.472 | 0.438 | 0.291 | 0.199 | 0.188 | 0.173 |
| NCI-H1703 | – | – | – | – | – | – | – | – | – | 0.263 | 0.341 | 0.301 | 0.379 | 0.305 | 0.267 | – | – | 0.265 | 0.239 | – |
| NCI-H1792 | 0.635 | 0.613 | 0.719 | 0.479 | 1.04 | 0.71 | 0.24 | 0.307 | 0.271 | 0.724 | 0.677 | 0.641 | 0.736 | 0.538 | 0.288 | 0.267 | 0.343 | 0.184 | 0.158 | 0.679 |
| Calu-6 | – | – | – | – | – | – | – | – | – | 1 | 0.843 | 0.951 | 0.7 | 0.644 | 0.995 | 0.898 | 0.467 | 0.859 | 0.218 | – |
| SK-LU-1 | 0.384 | 0.361 | 0.404 | 0.318 | 1.03 | 0.922 | 0.52 | 0.523 | 0.542 | 1.04 | 0.879 | 0.807 | 0.653 | 0.237 | 0.63 | 0.495 | 0.393 | 0.501 | 0.31 | 0.329 |
| PC-3 [JPC-3] | 0.578 | 0.511 | 0.567 | 0.478 | 1.43 | 1.06 | 1.07 | 0.755 | 0.813 | 1.07 | 0.971 | 1.03 | 1.13 | 1 | 0.745 | 0.612 | 0.538 | 0.738 | 0.478 | 0.53 |
| EMC-BAC-2 | 0.555 | 0.505 | 0.544 | 0.483 | 0.496 | 0.466 | 0.428 | 0.458 | 0.474 | 0.815 | 0.649 | 0.723 | 0.765 | 0.69 | 0.536 | 0.562 | 0.493 | 0.606 | 0.546 | 0.511 |
